Results: publication PMC5308787, “Isoprenoid-phospholipid conjugates as potential therapeutic agents: Synthesis, characterization and antiproliferative studies” (PLoS ONE, 2017)

Assays:
[1] = test system: drug resistant LOVO/DX line vs drug sensitive LoVo line; experiment: Resistance index (RI): IC50 LOVO/DX divided by IC50 LoVo; format: cell-based, human; conditions: for Resistance index (RI): RI = IC50 resistant line / IC50 non-resistant line, 0<RI<2 able to overcome drug resistance, 2<RI<10 moderate ability, RI>10 no influence
Text: (§1) The results of antiproliferative activity were given as IC50 values. Using this parameter we calculated also the resistance indexes (RI) dividing the IC50 values of selected compounds estimated for drug resistant cell LOVO/DX line by respective values designated for drug sensitive LoVo line. According to Harker et al. three categories of the cells could be distinguished: (a) the cells are drug-sensitive—if the ratio approaches 0–2; (b) the cells are moderately drug-resistant—if the ratio ranges from 2 to 10; (c) the cells are markedly drug-resistant—if the ratio is higher than 10.

[2] = test system: A-549 (non-small cell lung cancer); experiment: Antiproliferative SRB assay, 72 h exposure; format: cell-based, human; conditions: n.a. = no activity in concentration of 5, 25, 125, 625 μM
Method: (§2) The biological studies were performed in vitro using human cancer cell lines: MV4-11 (human biphenotypic B myelomonocytic leukaemia), A-549 (non-small cell lung cancer), MCF-7 (breast cancer), LoVo (colon cancer), LoVo/DX (colon cancer drug resistant), HepG2 (liver cancer) and BALB/3T3 (normal mice fibroblasts). These lines were obtained from American Type Culture Collection (Rockville, Maryland, U.S.A.). The cell line is being maintained in the Institute of Immunology and Experimental Therapy, Wroclaw, Poland. All cell lines were grown at 37°C with 5% CO2 humidified atmosphere and were cultured in cultured medium according to the method described before.
(§3) Prior to usage, the compounds were dissolved in DMSO or in mixture of 99.8% ethanol and DMSO (1:1) to the concentration of 25 or 50 mM, and subsequently diluted in culture medium to reach the required concentrations (ranging from 5 to 625 μM).
(§4) Twenty-four hours prior to the addition of tested compounds, the cells were plated in 96-well plates (Sarstedt, Germany) at a density of 1 × 10^4 cells per well in 100 μL of culture medium. The assay was performed after 72 h of exposure to varying concentrations of the tested agents. The in vitro cytotoxic effect of tested agents was examined using the MTT (for MV4-11 cells) or SRB assay which were described previously. Each compound in each concentration was tested in triplicate in a single experiment, which was repeated 3–5 times.
as §1

MCF-7 (breast cancer) = experiment: Antiproliferative SRB assay, 72 h exposure; format: cell-based, human; conditions: n.a. = no activity in concentration of 5, 25, 125, 625 μM
Method: as §2, §3, §4, §1

LoVo (colon cancer) = experiment: Antiproliferative SRB assay, 72 h exposure; format: cell-based, human; conditions: SRB, 72 h, mean ± SD of 3–5 experiments, n.a. = no activity in concentration of 5, 25, 125, 625 μM
Method: as §2, §3, §4, §1

HepG2 (liver cancer) = experiment: Antiproliferative SRB assay, 72 h exposure; format: cell-based, human; conditions: n.a. = no activity in concentration of 5, 25, 125, 625 μM
Method: as §2, §3, §4, §1

[3] = test system: LoVo/DX (colon cancer drug resistant); experiment: Antiproliferative SRB assay, 72 h exposure; format: cell-based, human; conditions: mean ± SD of 3–5 experiments, n.a. = no activity in concentration of 5, 25, 125, 625 μM
Method: as §2, §3, §4, §1

[4] = test system: MV4-11 (human biphenotypic B myelomonocytic leukaemia); experiment: Antiproliferative MTT assay, 72 h exposure; format: cell-based
Method: as §2, §3, §4, §1

[5] = test system: BALB/3T3 (normal mice fibroblasts); experiment: Antiproliferative SRB assay, 72 h exposure; format: cell-based; conditions: n.a. = no activity in concentration of 5, 25, 125, 625 μM
Method: as §2, §3, §4, §1

[6] = Homo sapiens, A549, mean ± SD of 3–5 experiments
[7] = Homo sapiens, MCF7, mean ± SD of 3–5 experiments
[8] = Homo sapiens, HepG2, mean ± SD of 3–5 experiments
[9] = Homo sapiens, MV4-11, mean ± SD of 3–5 independent experiments
[10] = Mus musculus, BALB/3T3, mean ± SD of 3–5 experiments
[11] = mean ± SD of 3–5 independent experiments

| IC50 [2, 6] [µM] | IC50 (MCF-7 (breast cancer); [7]) [µM] | IC50 (LoVo (colon cancer); Homo sapiens, LoVo) [µM] | IC50 (HepG2 (liver cancer); [8]) [µM] | IC50 ([3]; Homo sapiens, LoVo/DX) [µM] | IC50 [4, 9] [µM] | Compound | Resistance index (RI) [1] | IC50 [5, 10] [µM] | further results |
| --- | --- | --- | --- | --- | --- | --- | --- | --- | --- |
| 301 ± 66.9 | 310 ± 84 | 329 ± 54.5 | 517 ± 98.3 | 281 ± 13.6 | 256 ± 86.1 | C=CC(C)(CCC=C(C)C)CC(=O)O (centres unmarked) [1 (GERA), 3,7-dimethyl-3-vinyloct-6-enoic acid] | 0.85 |  |  |
| 91 ± 11.5 | 162 ± 5.9 | 99.2 ± 26 | 267 ± 15.5 | 87 ± 14.4 | 153 ± 20.1 | C=CC(C)(CC/C=C(\C)CCC=C(C)C)CC(=O)O (centres unmarked) [2 (FARA), (E)-3,7,11-trimethyl-3-vinyldodeca-6,10-dienoic acid] | 0.88 | 230 ± 40.3 |  |
| 150 ± 16.8 | 231 ± 43.2 | 173 ± 38.7 | 274 ± 12 | 109 ± 16 | 132 ± 52.7 | CCCC=C1C(C)(C)CCCC1(C)CC(=O)O (centres unmarked) [3 (DAA), 2-(2-butylidene-1,3,3-trimethylcyclohexyl)-acetic acid] | 0.63 | 297 ± 14.4 |  |
|  |  |  |  |  | 39.3 ± 5.85 | C=CC(C)(CCCC(C)CCCC(C)CCCC(C)C)CC(=O)O (centres unmarked) [4 (PHYTA), 3,7,11,15-Tetramethyl-3-vinylhexadecanoic acid] |  |  |  |
|  |  |  |  |  |  | N.N.[Cl][Pt][Cl] [Cisplatin, cisplatin, reference compound] |  |  | IC50 ([5]; mean ± SD of 3–5 experiments): 4.2 ± 1.1 µM; IC50 ([2]; mean ± SD of 3–5 experiments): 8.6 ± 0.7 µM; IC50 (MCF-7 (breast cancer); mean ± SD of 3–5 experiments): 8.1 ± 0.03 µM; IC50 (LoVo (colon cancer)): 2.56 ± 0.35 µM; IC50 (HepG2 (liver cancer); mean ± SD of 3–5 experiments): 2.38 ± 0.64 µM; IC50 [3]: 3.17 ± 0.2 µM; IC50 [4, 11]: 1.3 ± 0.47 µM |
| 263 ± 19.7 | 209 ± 12.9 | 230 ± 6.9 | 286.4 ± 1.3 | 245 ± 19.7 | 50.1 ± 3.5 | C=CC(C)(CCC=C(C)C)CC(=O)OC[C@H](COP(=O)([O-])OCC[N+](C)(C)C)OC(=O)CC(C)(C=C)CCC=C(C)C (some centres unmarked) [Compound 6a] |  | 280 ± 8.2 |  |
| 52.3 ± 1.9 | 57.8 ± 2.6 | 53.1 ± 3.6 | 56.7 ± 0.1 | 56.9 ± 0.2 | 38.6 ± 11.1 | CCC/C=C1/C(C)(C)CCCC1(C)CC(=O)OC[C@H](COP(=O)([O-])OCC[N+](C)(C)C)OC(=O)CC1(C)CCCC(C)(C)/C1=C/CCC (stereo partly drawn) [Compound 6c, (2’R)-1’,2’-di{2-[(3R,2"E)-2"-butylidene-1",3",3"-trimethyl]cyclohexyl}acetyl-sn-glycero-3’-phospocholine + (2’R)-1’,2’-di{2-[(3S,2"E)-2"-butylidene-1",3",3"-trimethyl]cyclohexyl}acetyl-sn-glycero-3’-phospocholine] |  | 57.3 ± 0.3 |  |
|  |  |  |  |  | 42.4 ± 9.52 | C=CC(C)(CCCC(C)CCCC(C)CCCC(C)C)CC(=O)OC[C@H](COP(=O)([O-])OCC[N+](C)(C)C)OC(=O)CC(C)(C=C)CCCC(C)CCCC(C)CCCC(C)C (some centres unmarked) [Compound 6d] |  |  |  |
| 72.6 ± 1.6 | 66.6 ± 4.2 | 57.4 ± 0.7 | 159 ± 31.2 | 154 ± 7.9 | 95 ± 15.2 | C=CC(C)(CCC=C(C)C)CC(=O)O[C@H](COC(=O)CCCCCCCCCCCCCCC)COP(=O)([O-])OCC[N+](C)(C)C (stereo partly drawn) [Compound 7a, (2’R)-1’-palmitoyl-2’-[(3R)-3,7-dimethyl-3-vinylocta-6-enyl]-sn-glycero-3’-phosphocholine + (2’R)-1’-palmitoyl-2’-[(3S)-3,7-dimethyl-3-vinylocta-6-enyl]-sn-glycero-3’-phosphocholine] | 1.91 | 246 ± 13.9 | able to overcome the barrier of P-gp-dependent resistance ([1]; judged from RI): exception |
| 111 ± 12.9 | 98.7 ± 15.6 | 251 ± 22.7 | 272 ± 24.7 | 486 ± 17.4 | 50.3 ± 5.37 | C=CC(C)(CC/C=C(\C)CCC=C(C)C)CC(=O)O[C@H](COC(=O)CCCCCCCCCCCCCCC)COP(=O)([O-])OCC[N+](C)(C)C (stereo partly drawn) [Compound 7b, (2'R)-1’-palmitoyl-2’-[(3R,6E)-3,7,11-trimethyl-3-vinyldodeca-6,10-dienyl]-sn-glycero-3’-phosphocholine + (2'R)-1’-palmitoyl-2’-[(3S,6E)-3,7,11-trimethyl-3-vinyldodeca-6,10-dienyl]-sn-glycero-3’-phosphocholine] | 1.16 | 518 ± 69.8 |  |
|  |  |  |  |  | 259 ± 32.5 | C=CC(C)(CCCC(C)CCCC(C)CCCC(C)C)CC(=O)O[C@H](COC(=O)CCCCCCCCCCCCCCC)COP(=O)([O-])OCC[N+](C)(C)C (some centres unmarked) [Compound 7d] |  |  |  |
|  | 372 ± 28.1 | 245 ± 68.5 |  | 469 ± 3.2 | 269 ± 18 | C=CC(C)(CCC=C(C)C)CC(=O)OC[C@@H](O)COP(=O)([O-])OCC[N+](C)(C)C (some centres unmarked) [Compound 8a] | 1.61 |  |  |
|  | 470 ± 52.9 | 284 ± 9.7 |  | 382 ± 32.4 | 203 ± 15 | CCC/C=C1/C(C)(C)CCCC1(C)CC(=O)OC[C@@H](O)COP(=O)([O-])OCC[N+](C)(C)C (stereo partly drawn) [Compound 8c, (2’R)-1’-{2-[(3R,2"E)-2"-butylidene-1",3",3"-trimethyl]cyclohexyl}acetyl-2’-hydroxy-sn-glycero-3’-phospocholine + (2’R)-1’-{2-[(3S,2"E)-2"-butylidene-1",3",3"-trimethyl]cyclohexyl}acetyl-2’-hydroxy-sn-glycero-3’-phospocholine] | 1.23 |  |  |
|  |  |  |  |  | 47.4 ± 6.35 | C=CC(C)(CCCC(C)CCCC(C)CCCC(C)C)CC(=O)OC[C@@H](O)COP(=O)([O-])OCC[N+](C)(C)C (some centres unmarked) [Compound 8d] |  |  |  |
| 38.3 ± 6.7 | 40 ± 1.9 | 32.8 ± 5.1 | 59.2 ± 4.6 | 52.7 ± 3.3 | 31.8 ± 1.62 | C=CC(C)(CCC=C(C)C)CC(=O)OC[C@H](COP(=O)([O-])OCC[N+](C)(C)C)OC(=O)CCCCCCCCCCCCCCC (some centres unmarked) [Compound 9a] |  | 57.6 ± 1 |  |
|  | 489 ± 57.7 | 269 ± 29.9 |  | 537 ± 61.2 | 299 ± 39.3 | C=CC(C)(CC/C=C(\C)CCC=C(C)C)CC(=O)OC[C@H](COP(=O)([O-])OCC[N+](C)(C)C)OC(=O)CCCCCCCCCCCCCCC (some centres unmarked) [Compound 9b] |  |  |  |
| 68.3 ± 1.5 | 102 ± 11.2 | 61.5 ± 4.84 | 303 ± 77.6 | 75.5 ± 8.1 | 50 ± 9 | CCC/C=C1/C(C)(C)CCCC1(C)CC(=O)OC[C@H](COP(=O)([O-])OCC[N+](C)(C)C)OC(=O)CCCCCCCCCCCCCCC (stereo partly drawn) [Compound 9c, (2’R)-1’-{2-[(3R,2"E)-2"-butylidene-1",3",3"-trimethyl]cyclohexyl}acetyl-2’-palmitoyl-sn-glycero-3’-phospocholine + (2’R)-1’-{2-[(3S,2"E)-2"-butylidene-1",3",3"-trimethyl]cyclohexyl}acetyl-2’-palmitoyl-sn-glycero-3’-phospocholine] |  | 292 ± 41.5 |  |
|  |  |  |  |  | 259 ± 37 | C=CC(C)(CCCC(C)CCCC(C)CCCC(C)C)CC(=O)OC[C@H](COP(=O)([O-])OCC[N+](C)(C)C)OC(=O)CCCCCCCCCCCCCCC (some centres unmarked) [Compound 9d] |  |  |  |
|  |  |  |  |  |  | CCCCCCCCCCCCCCCC(=O)OC[C@H](COP(=O)([O-])OCC[N+](C)(C)C)OC(=O)CCCCCCCCCCCCCCC [DPPC, reference compound] |  |  | IC50 ([5]; mean ± SD of 3–5 experiments): 48.8 ± 2.1 µM; IC50 ([2]; mean ± SD of 3–5 experiments): 230 ± 31.3 µM; IC50 (MCF-7 (breast cancer); mean ± SD of 3–5 experiments): 398 ± 194 µM; IC50 (LoVo (colon cancer)): 274 ± 17.1 µM; IC50 [4, 11]: 179 ± 30.2 µM |
|  |  |  |  |  |  | COc1cccc2c1C(=O)c1c(O)c3c(c(O)c1C2=O)C[C@@](O)(C(=O)CO)C[C@@H]3O[C@H]1C[C@H](N)[C@H](O)[C@H](C)O1 [Doxorubicin, doxorubicin, reference compound] | 55.81 |  |  |
| 56.4 ± 1.6 | 123 ± 63.4 | 42.1 ± 4.6 | 275 ± 85.2 | 86.3 ± 21.3 | 161 ± 78.9 | CCCCCCCCCCCCCCCC(=O)O [Palmitic acid, reference compound] |  | 60.4 ± 4 |  |
